Results published in patent US9446053B2, “Method for enhancing the secretion of GLP-1 using bitter compounds” (priority 2013, dated 2016).
Where two headings read alike, the source gives them in different places.

Legend:
[1] = system: intestinal endocrine cell line STC-1; test: Bitter compound stimulating the secretion of GLP-1 of STC-1 cells (GLP-1 ELISA normalised to MTT cell viability, vehicle = 1); format: cell-based, mouse; conditions: for secretion of GLP-1, fold comparing to the vehicle group: p<0.05; for fold induction at 1000 µM: 1 mM
Procedure: The embodiment of the present invention use a proglucagon-expression cell line STC-1 for study. The STC-1 cells are divided into the experimental groups and the control group. […] The secretion of GLP-1 is obtained by calculating the data gathered from the experiment using the standard curve after treating intestinal endocrine cell line STC-1 with different bitter compounds. Cell viability is measured by MTT assay after treating intestinal endocrine cell line STC-1 with different bitter compounds. The ratio of the amount of GLP-1 secreted to the cell viability in each experiment is the fold of that given bitter compound stimulating the secretion of GLP-1 of the intestinal endocrine cell line STC-1. […] Moreover, co-administering specific bitter compound, bitter taste receptor inhibitor or phospholipase C (PLC) inhibitor can further determine the bitter taste receptor corresponded to the bitter compound. The above mentioned testing methods are explained in detailed as follow:
For the embodiment of the ability of bitter compound stimulating secretion of GLP-1 of the intestinal endocrine cell line STC-1, the experiment procedure of the stimulation of GLP-1 secretion is referred in FIG. 1.
(§1) S3: The STC-1 cell line was treated by a bitter compound.
(§2) S4: Supernatant was collected via centrifugation and the remaining growth medium was removed after 1 hour and the amount of cell was measured by MTT assay.
S5: Supernatant from S4 was centrifuged again at 500×g for 5 minutes. After eliminating cell debris, the resulting supernatant was collected and stored at −80° C. for the analysis of GLP-1 secretion using commercial kit Millipore EGLP-35K. The sensitivity of the kit is between 2-100 pM. […] The result was shown in the amount of GLP-1 secreted per unit cell. To prevent over-discrepant results between batches and for the ease of statistic, each vehicle group was taken as 1, which is the comparison of result of each sample of that experiment.
(§3) Before measuring the amount of GLP-1 secreted, all reagents were placed on ice until fully dissolved. 10× washing buffer concentrate were diluted 10 times using distilled water; STC-1 cell line was dissolved using 1 mL distilled water and was diluted 200 times using phosphate buffered saline (PBS). 300 μL/well of 1× wash buffer were added and were placed for 5 minutes at room temperature then were poured out. 200 μL/well of assay buffer were added to NSB, while 100 μL/well of assay buffer were added to the remaining wells. 100 μL of Standards, QC or STC-1 cell line were then added to the wells accordingly, and then the 96-well plate was shaken moderately for an even mixture within each well. Plates were then being sealed allowing reaction to take place at 4° C. for 20-24 hours. Plates were then washed 5 times by 300 μL/well of 1× wash buffer and placed for 5 minutes. 200 μL/well of detection conjugate was added allowing reactions to take place at room temperature for 2 hours. It was then washed 3 times by 300 μL/well of 1× wash buffer. 200 μL/well of diluted STC-1 cell line was added allowing reaction to take place at room temperature and light-free environment for approximately 20 minutes. 50 μL/well of stop solution was added to stop the reaction at room temperature and light-free environment for 5 minutes. Finally, the concentration of GLP-1 was calculated using the data obtained and the standard curve.
Principle of MTT assay: Methylthiazolyldiphenyl-tetrazolium bromide (MTT), or 3-(4,5-cimethylthiazol-2-yl)-2,5-diphenyl tetrazolium bromide, is a yellow dye which can be reduced by dehydrogenase of mitochondria in living cells, forming an insoluble purple crystal, formazan. Thus, it is often used for the screening of the effect of materials upon the cell growth and proliferation.

[2] = system: intestinal endocrine cell line STC-1; test: GLP-1 secretion of STC-1 cells when allyl isothiocyanate and bitter taste receptor inhibitor probenecid are co-administered; format: cell-based, mouse
Source text: The embodiment of the present invention use a proglucagon-expression cell line STC-1 for study. The STC-1 cells are divided into the experimental groups and the control group. The control groups are also called vehicle groups, which is the comparison of result of each experiment taken as 1. The secretion of GLP-1 is obtained by calculating the data gathered from the experiment using the standard curve after treating intestinal endocrine cell line STC-1 with different bitter compounds. Cell viability is measured by MTT assay after treating intestinal endocrine cell line STC-1 with different bitter compounds. The ratio of the amount of GLP-1 secreted to the cell viability in each experiment is the fold of that given bitter compound stimulating the secretion of GLP-1 of the intestinal endocrine cell line STC-1. By comparing experimental groups and vehicle groups, the difference between different bitter compounds in terms of their ability to stimulate the secretion of GLP-1 of the intestinal endocrine cell line STC-1 can be observed. Moreover, co-administering specific bitter compound, bitter taste receptor inhibitor or phospholipase C (PLC) inhibitor can further determine the bitter taste receptor corresponded to the bitter compound. The above mentioned testing methods are explained in detailed as follow:
S1: 6.39×10^4 cells were planted with 10% FBS DMEM (high glucose) in 48-well culture tray and were incubated for 48 hours.
S2: After 48 hours when the cell growth reached 85%, culture medium was changed into 10% FBS DMEM (low glucose) for a 3-hour starvation and then followed by the treatment of 0.2% BSA DEME (low glucose).
as §1, §2
S5: Supernatant from S4 was centrifuged again at 500×g for 5 minutes. After eliminating cell debris, the resulting supernatant was collected and stored at −80° C. for the analysis of GLP-1 secretion using commercial kit Millipore EGLP-35K. The sensitivity of the kit is between 2-100 pM. The amount of GLP-1 secreted of each vehicle group is between 50-150 pM according to the batch, therefore, it is advised that the supernatant being diluted 4 times before the analysis. The result was shown in the amount of GLP-1 secreted per unit cell. To prevent over-discrepant results between batches and for the ease of statistic, each vehicle group was taken as 1, which is the comparison of result of each sample of that experiment.
as §3, with “Finally, the concentration of GLP-1 was calculated using the data obtained and the standard curve.” left out

[3] = Mus musculus, STC-1, 1 h, read-out: Fold (largest fold of GLP-1 secretion vs vehicle group)
[4] = STC-1 cells treated by 20 μg/mL
[5] = STC-1 cells treated by 50 μg/mL
[6] = STC-1 cells treated by 100 μg/mL
[7] = STC-1 cells treated by 200 μg/mL
[8] = Mus musculus, STC-1 cells, 1 hour treatment, vehicle = 1, read-out: Fold (largest fold of GLP-1 secretion vs vehicle group)

SMILES: CC[N+](CC)(CC(=O)Nc1c(C)cccc1C)Cc1ccccc1 [Denatonium benzoate, reference compound]
- fold induction at 2500 µM ([1]; Mus musculus, STC-1 cells, 2.5 mM, 1 hour treatment, vehicle = 1, read-out: Fold (largest fold of GLP-1 secretion vs vehicle group)): 2.97

SMILES: CC1=CC(=O)[N-]S(=O)(=O)O1.[K+] [Acesulfame K, reference compound]
- Fold (largest fold of GLP-1 secretion vs vehicle group) ([1]; STC-1 cells, 10 mM, 1 hour treatment, vehicle = 1): ↑1.90 fold

SMILES: C=C[C@H]1C[N@@]2CC[C@H]1C[C@H]2[C@H](O)c1ccnc2ccc(OC)cc12 [Quinine, reference compound]
- fold induction at 80 µM ([1]; Mus musculus, STC-1 cells, 80 μM, 1 hour treatment, vehicle = 1, read-out: Fold (largest fold of GLP-1 secretion vs vehicle group)): 1.9

SMILES: O=C1C[C@@H]2OCC=C3CN4CC[C@]56c7ccccc7N1[C@H]5[C@H]2[C@H]3C[C@H]46 [Strychnine, reference compound]
- fold induction at 50 µM [1, 3]: 1.91

SMILES: C=CCN=C=S [Allyl isothiocyanate]
- fold induction at 10 µM ([1]; Mus musculus, STC-1 cells, 10 μM, 1 hour treatment, vehicle = 1, read-out: Fold (largest fold of GLP-1 secretion vs vehicle group)): 4.06
- secretion of GLP-1 comparing to the vehicle groups (in words) ([1]; STC-1 cells, 1.0 μM, 2.0 μM, 5.0 μM and 10.0 μM, dose-dependent manner): significantly increase the secretion of GLP-1
- Fold (largest fold of GLP-1 secretion vs vehicle group) ([1]; STC-1 cells, 10 μM, 1 hour treatment, vehicle = 1): ↑4.06 fold
- secretion of GLP-1, fold of the vehicle group ([2]; 0.5 mM of probenecid jointly applied, first of three allyl isothiocyanate concentrations, p<0.001): 1.14 fold
- secretion of GLP-1, fold of the vehicle group ([2]; 0.5 mM of probenecid jointly applied, second of three allyl isothiocyanate concentrations, p<0.001): 1.40 fold
- secretion of GLP-1, fold of the vehicle group ([2]; 0.5 mM of probenecid jointly applied, third of three allyl isothiocyanate concentrations, p<0.001): 1.93 fold
- secretion of GLP-1, fold of the vehicle group ([2]; 1.0 mM of probenecid jointly applied, first of three allyl isothiocyanate concentrations, p<0.001): 0.86 fold
- secretion of GLP-1, fold of the vehicle group ([2]; 1.0 mM of probenecid jointly applied, second of three allyl isothiocyanate concentrations, p<0.001): 1.07 fold
- secretion of GLP-1, fold of the vehicle group ([2]; 1.0 mM of probenecid jointly applied, third of three allyl isothiocyanate concentrations, p<0.001): 1.51 fold
- secretion of GLP-1, fold of the vehicle group ([2]; allyl isothiocyanate solely applied, first of three concentrations, p<0.05): 1.44 fold
- secretion of GLP-1, fold of the vehicle group ([2]; allyl isothiocyanate solely applied, second of three concentrations, p<0.05): 2.05 fold
- secretion of GLP-1, fold of the vehicle group ([2]; allyl isothiocyanate solely applied, third of three concentrations, p<0.05): 3.44 fold

SMILES: COc1cc2c(cc1OC)[C@@]13CCN4CC5=CCO[C@H]6CC(=O)N2[C@H]1[C@H]6[C@H]5C[C@H]43 [Brucine, reference compound]
- fold induction at 50 µM ([1]; Mus musculus, STC-1 cells, 50 μM, 1 hour treatment, vehicle = 1, read-out: Fold (largest fold of GLP-1 secretion vs vehicle group)): 1.54

SMILES: CC(C)=CC(O)C[C@@H](C)[C@H]1CC[C@@]2(C)[C@@H]3C=C[C@@]45OC[C@]3(CC[C@]12C)C4CC[C@H](O)C5(C)C (stereo partly drawn) [Compound of formula IV, 5β,19-epoxycucurbita-6,24-diene-3β,23ξ-diol]
- secretion of GLP-1, fold comparing to the vehicle group ([1]; STC-1 cells treated by 5 μg/mL): 1.37 fold
- secretion of GLP-1, fold comparing to the vehicle group [1, 4]: 1.49 fold
- secretion of GLP-1, fold comparing to the vehicle group [1, 5]: 1.84 fold
- secretion of GLP-1, fold comparing to the vehicle group [1, 6]: 2.76 fold
- secretion of GLP-1, fold comparing to the vehicle group [1, 7]: 3.68 fold

SMILES: Cn1c(=O)c2c(ncn2C)n(C)c1=O [Caffeine, reference compound]
- fold induction at 1000 µM [1, 8]: 1.72

SMILES: CC1(C)O[C@H]2CC(=O)OC[C@]23[C@H]2CC[C@@]4(C)[C@H](c5ccoc5)OC(=O)[C@H]5O[C@]54[C@]2(C)C(=O)C[C@@H]13 [Limonin, reference compound]
- fold induction at 200 µM ([1]; Mus musculus, STC-1 cells, 200 μM, 1 hour treatment, vehicle = 1, read-out: Fold (largest fold of GLP-1 secretion vs vehicle group)): 1.22

SMILES: CC(C)=C/C=C/[C@@H](C)[C@H]1CC[C@@]2(C)c3ccc4c(c3CC[C@]12C)CC[C@H](O)C4(C)C [Compound of formula II, 19-nor-cucurbita-5(10),6,8,22(E),24-pentaen-3β-ol]
- secretion of GLP-1, fold comparing to the vehicle group ([1]; STC-1 cells treated by 5 μg/mL): 1.66 fold
- secretion of GLP-1, fold comparing to the vehicle group [1, 4]: 2.28 fold
- secretion of GLP-1, fold comparing to the vehicle group [1, 5]: 4.53 fold
- secretion of GLP-1, fold comparing to the vehicle group [1, 6]: 6.05 fold
- secretion of GLP-1, fold comparing to the vehicle group [1, 7]: 6.16 fold

SMILES: CCN(CC)CCCC(C)Nc1ccnc2cc(Cl)ccc12 (stereo not shown) [Chloroquine, reference compound]
- fold induction at 5 µM [1, 3]: 1.78

SMILES: O=C1NS(=O)(=O)c2ccccc21 [Saccharin, reference compound]
- fold induction at 1000 µM [1, 8]: 4.84
